Laboratory results reported in patent publication US12522597B2, “Methods and compositions for modulating splicing” (Skyhawk Therapeutics, Inc., priority 2019, dated 2026).

Legend:
[1] = tested on: MDR1; experiment: MDCK-MDR1 permeability assay (BBB penetration potential); type: in vitro ADME; details: dog; for efflux ratio at 120 min, 5 μM: MDCK-MDR1, pH 7.4, MDCK-MDR1: Efflux; for Papp A→B at 120 min, 5 μM: MDCK-MDR1, pH 7.4, MDCK-MDR1: Papp A-B; for Papp B→A at 120 min, 5 μM: MDCK-MDR1, pH 7.4, MDCK-MDR1: Papp B-A
Protocol: (§1) Each determination is performed in duplicate. […] Analytical conditions are outlined below.

[2] = tested on: MDR1-MDCK cell monolayers; experiment: as above; type: in vitro ADME; details: dog, MDCK-MDR1, 120 min, 5 μM, pH 7.4
Protocol: as §1

[3] = tested on: mHTT protein; experiment: mHTT protein assay (2B7-MW1, Mesoscale Discovery); type: cell-based, human; details: GM04724 (CAG 70/20) Huntington's disease patient lymphoblast cells, 48 hours, 2B7-MW1 MSD; read-out: HTT Potency - Protein EC50 mHTT (average)
Protocol: Compounds are tested on GM04724 (CAG 70/20) Huntington's disease patient lymphoblast cells at doses ranging from 10 μM to 0.6 nM. 4,500 cells/well are seeded in 384 well plates. One plate replica is carried out for parallel viability testing by CellTiter Glo (CTG). Compounds are incubated for 48 hours, mHTT protein levels are assessed by the 2B7-MW1 assay via Mesoscale Discovery (MSD) as previously reported (Macdonald et al., 2014). The antibody pair is comprised of previously characterized monoclonals (2B7 and MW1) interrogating two regions for HTT conformation and biological properties: the N17 domain and the polyQ domain (Baldo et al., 2012; Ko et., 2001). 2B7-MW1 is dependent on subject/animal specific levels of HTT at the time of treatment. 2B7-MW1 is dependent on polyQ expansion (e.g., the higher the expansion the higher the signal) and on mHTT size (e.g., a similar polyQ will give higher signal with smaller HTT size). The viability readout is carried out by CTG according to the manufacturer's instructions.

| SMILES | efflux ratio at 120 min, 5 μM [1] | Papp A→B at 120 min, 5 μM [1] [×10⁻⁶ cm/s] | Papp B→A at 120 min, 5 μM [1] [×10⁻⁶ cm/s] | MDCK-MDR1: % Recov A-B [2] [%] | MDCK-MDR1: % Recov B-A [2] [%] | EC50 [3] [nM] |
| --- | --- | --- | --- | --- | --- | --- |
| Cc1cc(-c2ccc(-c3ccc(O[C@H]4C[C@@H]5CCC[C@@H](N5)[C@H]4F)nn3)c(O)c2)cs1 (single isomer, unassigned) [101-ENT2] | 1 | 0.92 | 0.55 | 20 | 53 | 16 to 50 |
| Cn1cc(-c2cc(O)c(-c3ccc(O[C@H]4C[C@@H]5CCC(N5)[C@H]4F)nn3)cn2)cn1 (single isomer, unassigned) [63-ENT2] | 38 | 0.26 | 9.6 | 96 | 107 | 501 to 10000 |
| Oc1cc(-c2cn[nH]c2)ccc1-c1ccc(O[C@@H]2C[C@H]3CCC[C@H](N3)[C@H]2F)nn1 (single isomer, unassigned) [41-ENT2] | 8 | 4.96 | 40.9 | 66 | 74 | 16 to 50 |
| Oc1cc(-c2cn[nH]c2)ccc1-c1ccc(O[C@H]2C[C@@H]3COC[C@@H](N3)[C@H]2F)nn1 (single isomer, unassigned) [123-ENT2] | 10 | 7.03 | 69.8 | 87 | 93 | 101 to 500 |
| Oc1cc(-c2cnn3ccccc23)ccc1-c1ccc(O[C@@H]2C[C@H]3CCC[C@H](N3)[C@@H]2F)nn1 (single isomer, unassigned) [91-ENT1] | 3 | 4.52 | 15.5 | 30 | 57 | 101 to 500 |
| Oc1cc(-c2cc[nH]n2)ccc1-c1ccc(O[C@@H]2C[C@H]3CCC[C@H](N3)[C@@H]2F)nn1 (single isomer, unassigned) [66-ENT1] | 11 | 0.93 | 10.1 | 79 | 80 | 51 to 100 |
| Oc1cc(-c2ccc3cncn3c2)ccc1-c1ccc(O[C@H]2C[C@@H]3CCC[C@@H](N3)[C@H]2F)nn1 (single isomer, unassigned) [85-ENT2] | 7 | 2.26 | 15.3 | 33 | 61 | 101 to 500 |
| Oc1cc(-c2ccn3cnnc3c2)ccc1-c1ccc(O[C@H]2C[C@@H]3CCC[C@@H](N3)[C@H]2F)nn1 (single isomer, unassigned) [86-ENT2] | 48 | 0.42 | 20.3 | 75 | 74 | 101 to 500 |
| Oc1cc2nccnc2cc1-c1ccc(O[C@@H]2C[C@H]3CCC[C@H](N3)[C@@H]2F)nn1 (single isomer, unassigned) [104-ENT1] | 6 | 7.17 | 45.7 | 95 | 92 | 501 to 10000 |
| Cn1ccc(-c2ccc(-c3ccc(O[C@H]4C[C@@H]5CCC[C@@H](N5)[C@H]4F)nn3)c(O)c2)nc1=O (single isomer, unassigned) [107-ENT2] | 100 | 0.11 | 11.2 | 97 | 103 | 101 to 500 |
| Cc1cc(-c2ccc(-c3ccc(O[C@@H]4C[C@H]5CCC[C@H](N5)[C@@H]4F)nn3)c(O)c2)cs1 (single isomer, unassigned) [101-ENT1] | 1 | 0.86 | 0.76 | 25 | 70 | 101 to 500 |
| Oc1cc(-c2ccnnc2)ccc1-c1ccc(O[C@H]2C[C@@H]3CCC[C@@H](N3)[C@H]2F)nn1 (single isomer, unassigned) [87-ENT2] | 14 | 3.9 | 56.1 | 105 | 108 | 101 to 500 |
| Oc1cc(-c2ccc3nccn3c2)ccc1-c1ccc(O[C@H]2C[C@@H]3CCC[C@@H](N3)[C@H]2F)nn1 (single isomer, unassigned) [84-ENT2] | 14 | 1.63 | 22.8 | 43 | 73 | 16 to 50 |
| Cc1ccc(-c2ccc(-c3ccc(O[C@H]4C[C@@H]5CCC[C@@H](N5)[C@H]4F)nn3)c(O)c2)o1 (single isomer, unassigned) [99-ENT2] | 1 | 6.11 | 6.02 | 16 | 55 | 101 to 500 |
| CN(C)C(=O)c1cc2cc(O)c(-c3ccc(O[C@H]4C[C@]5(C)CCC[C@@](C)(N5)[C@H]4F)nn3)cc2o1 (single isomer, unassigned) [155-ENT2] | 17 | 3.84 | 63.7 | 102 | 102 | 501 to 10000 |
| CNC(=O)c1ccc2cc(-c3ccc(O[C@H]4C[C@@H]5CCC[C@@H](N5)[C@H]4F)nn3)c(O)cc2n1 (single isomer, unassigned) [136-ENT1] | 28 | 2.27 | 62.3 | 88 | 101 | 0.01 to 15 |
| Cn1ccc(=O)c2cc(O)c(-c3ccc(O[C@H]4C[C@]5(C)CCC[C@@](C)(N5)[C@H]4F)nn3)cc21 (stereo in doubt) [132-ENT2, 7-(6-(((1R,2R,3S,5S)-2-fluoro-1,5-dimethyl-9-azabicyclo[3.3.1]nonan-3-yl)oxy)pyridazin-3-yl)-6-hydroxy-1-methylquinolin-4(1H)-one] | 126 | 0.11 | 13.4 | 93 | 95 | 101 to 500 |
| Cc1nc(-c2ccc(-c3ccc(O[C@H]4C[C@@H]5CCC[C@@H](N5)[C@H]4F)nn3)c(O)c2)co1 (single isomer, unassigned) [92-ENT2] | 9 | 6.04 | 54.6 | 72 | 89 | 101 to 500 |
| Oc1cc(-c2nnco2)c(F)cc1-c1ccc(O[C@H]2C[C@@H]3CCC[C@@H](N3)[C@H]2F)nn1 (single isomer, unassigned) [143-ENT1] | 8 | 6.56 | 55.7 | 81 | 93 | 51 to 100 |
| C[C@]12CCC[C@](C)(N1)[C@H](F)[C@H](Oc1ccc(-c3ccc(C#N)cc3O)nn1)C2 (single isomer, unassigned) [145-ENT1] | 4 | 9.39 | 42 | 82 | 87 | 501 to 10000 |
| Oc1cc(-c2nncs2)ccc1-c1ccc(O[C@H]2C[C@@H]3CC[C@@H](N3)[C@H]2F)nn1 (single isomer, unassigned) [141-ENT1] | 6 | 9.97 | 59.7 | 111 | 120 | 101 to 500 |
| Cc1nnc(-c2ccc(-c3ccc(O[C@@H]4C[C@H]5CCC[C@H](N5)[C@@H]4F)nn3)c(O)c2)o1 (single isomer, unassigned) [94-ENT1] | 7 | 6.2 | 41.2 | 104 | 70 | 101 to 500 |
| Oc1cc2ncccc2cc1-c1ccc(O[C@@H]2C[C@H]3CCC[C@H](N3)[C@@H]2F)nn1 (single isomer, unassigned) [103-ENT1] | 16 | 3.92 | 61.5 | 95 | 101 | 501 to 10000 |
| Cc1nocc1-c1ccc(-c2ccc(O[C@H]3C[C@@H]4CCC[C@@H](N4)[C@H]3F)nn2)c(O)c1 (single isomer, unassigned) [72-ENT2] | 7 | 4.67 | 34.9 | 64 | 74 | 101 to 500 |
